Assay results published in patent EP4631938A1, “NITROGEN-CONTAINING HETEROCYCLE WITH SEROTONIN RECEPTOR-BINDING ACTIVITY AND CARBOCYCLIC DERIVATIVE” (Shionogi & Co., Ltd, priority 2022, dated 2024).
Where two headings read alike, the source gives them in different places.

Legend:
[1] = molecular target: T1, human recombinant 5-HT2C receptor (Homo sapiens, UniProt P28335); assay: Test Example 2-2: 5-HT2C receptor binding inhibition test ([3H]-Mesulergine; non-specific ligand Ketanserin); conditions: non-specific binding with 500 µmol/L Ketanserin, 37°C, 2 hours
T1 construct: expressed in transfected cells; host or cells: Jump-In HEK cells (membrane preparation)
T1 sequence (P28335 33-458): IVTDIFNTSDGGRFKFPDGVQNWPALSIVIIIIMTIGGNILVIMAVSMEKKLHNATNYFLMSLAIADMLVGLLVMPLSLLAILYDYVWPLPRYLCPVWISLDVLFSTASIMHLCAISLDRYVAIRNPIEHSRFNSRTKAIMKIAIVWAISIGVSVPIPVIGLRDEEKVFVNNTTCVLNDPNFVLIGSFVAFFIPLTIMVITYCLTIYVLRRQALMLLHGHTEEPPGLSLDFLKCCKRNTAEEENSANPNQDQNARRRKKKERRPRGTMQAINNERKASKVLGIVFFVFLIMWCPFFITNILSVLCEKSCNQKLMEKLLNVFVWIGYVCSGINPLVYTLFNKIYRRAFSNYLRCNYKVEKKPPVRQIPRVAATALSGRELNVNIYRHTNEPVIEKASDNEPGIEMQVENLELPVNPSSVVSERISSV
Method: The Kd value is calculated when the lot of the cell membrane is changed. 1 mmol/L non-specific binding calculating compound dissolved in DMSO or DMSO is previously dispensed to the microplate by 0.5 µL, and the cell membrane is diluted with an Assay buffer. The radioactive ligand solution is diluted step by step, and counts are checked with a liquid scintillator. The Assay buffer containing diluted cell membranes is dispensed by 50 µL/well into the microplate. The radioactive ligand solution is then dispensed by 50 µL/well into the microplate and the plate is sealed. The microplate is allowed to stand at 37°C for 2 hours. During this time, 50 mmol/L Tris-HCl (pH 7.4) is dispensed by 50 µL/well into the UniFilter plate and allowed to stand at 4°C for 1 hour or longer. Thereafter, filtration is performed with a Cell Harvester (PerkinElmer). The radioactive ligand solution is dispensed by 10 µL/well into empty wells of the UniFilter plate. After drying the UniFilter plate at room temperature, MicroScinti20 is dispensed by 50 µL/well into the UniFilter plate, and the plate is sealed. UniFilter plate is allowed to stand at room temperature overnight. The radioactivity of [^3H]-Mesulergine bound to the 5-HT2C receptor is measured using Microbeta2 (PerkinElmer) at a measurement time of 1 min/well. The Saturation curve is drawn from the measured value, and the Kd value is calculated from the slope of the Scatchard Plot.
A compound solution dissolved in DMSO is dispensed to a microplate by 0.5 µL, and a cell membrane and a hot ligand are each diluted with an Assay buffer. The Assay buffer containing diluted cell membrane is then dispensed by 50 µL/well into the microplate. The radioactive ligand solution is then dispensed by 50 µL/well into the microplate and the plate is sealed. The microplate is then allowed to stand at 37°C for 2 hours. During this time, 50 mmol/L Tris-HCl (pH 7.4) is dispensed by 50 µL/well into the UniFilter plate and allowed to stand at 4°C for 1 hour or longer. Thereafter, filtration is performed with a Cell Harvester (PerkinElmer). After drying the UniFilter plate at room temperature, MicroScinti20 is dispensed by 50 µL/well into the UniFilter plate, and the plate is sealed. UniFilter plate is allowed to stand at room temperature overnight. The radioactivity of [^3H]-Mesulergine bound to the 5-HT2C receptor is measured using Microbeta2 (PerkinElmer) at a measurement time of 1 min/well. Non-specific binding is calculated from the radioactivity of [^3H]-Mesulergine in the presence of 500 µmol/L Ketanserin of unlabeled ligand, and total binding is calculated from the radioactivity of [^3H]-Mesulergine in the absence of the compound of the present invention (Vehicle). Finally, the Ki value is calculated from the dose-response curve.
(The binding activity of the compound according to the present invention is calculated from the following binding inhibition rate (%).) Inhibition rate (%) = [1−(c−a)/(b−a)] × 100 [formula] • a; average cpm of non-specific binding • b; average cpm of total binding • c; cpm in the presence of the test compound
The compounds of the present invention were tested essentially as described above.

[2] = molecular target: T2, human recombinant 5-HT2A receptor (Homo sapiens, UniProt P28223); assay: Test Example 1-2: 5-HT2A receptor binding inhibition test ([3H]-Ketanserin; non-specific ligand Ketanserin)
T2 construct: expressed in transfected cells; host or cells: Jump-In HEK cells (membrane preparation)
Outline: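 Membranes expressing the receptor were incubated with [3H]-ketanserin and compound for 1.5 h at 25 °C, then filtered onto plates presoaked in 50 mmol/L Tris-HCl pH 7.4 and scintillation-counted. Non-specific binding was defined with 500 µmol/L unlabeled ketanserin. Ki was taken from dose-response curves, with Kd set for each membrane lot by Scatchard analysis.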

[3] = molecular target: T1, human recombinant 5-HT2C receptor; assay: Test Example 2: 5-HT2C receptor binding inhibition test ([3H]-Mesulergine; non-specific ligand Serotonin HCl); conditions: human serotonin 5-HT2C receptor binding activity
Outline: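 Filtration binding to membranes bearing human 5-HT2C with [3H]-mesulergine, 2 h at 37°C; non-specific binding defined with 500 µmol/L serotonin HCl, total binding with vehicle. Inhibition rate computed from cpm; Ki derived from dose-response curve, with ligand Kd from Scatchard analysis of saturation binding.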

[4] = [3H]-Ketanserin, non-specific binding with 500 µmol/L Ketanserin, room temperature (25°C), 1.5 hours, read-out: h 5-HT2A Ki

T2 sequence (P28223 whole entry): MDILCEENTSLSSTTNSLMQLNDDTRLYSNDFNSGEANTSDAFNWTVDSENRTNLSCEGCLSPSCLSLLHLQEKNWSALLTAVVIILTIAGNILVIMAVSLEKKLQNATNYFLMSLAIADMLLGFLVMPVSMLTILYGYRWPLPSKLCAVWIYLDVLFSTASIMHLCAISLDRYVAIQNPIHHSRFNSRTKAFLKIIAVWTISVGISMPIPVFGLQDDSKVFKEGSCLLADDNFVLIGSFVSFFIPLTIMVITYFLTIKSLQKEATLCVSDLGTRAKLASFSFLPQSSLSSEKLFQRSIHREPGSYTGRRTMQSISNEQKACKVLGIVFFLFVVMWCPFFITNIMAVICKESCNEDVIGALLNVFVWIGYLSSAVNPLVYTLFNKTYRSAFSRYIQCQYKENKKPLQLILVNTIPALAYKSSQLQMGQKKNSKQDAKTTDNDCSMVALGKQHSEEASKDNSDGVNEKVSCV

SMILES | Ki [1] [nM] | Ki [2, 4] [nM] | Ki [3] [nM] | Ki [2] [nM]
Cc1cnn(C)c1-c1cc(Nc2ccc(C(F)(F)F)cn2)c(Oc2ccn(C)n2)cc1OCCO [Compound I-126] | 4.42 | 0.654 | – | –
Cn1cnc(C#N)c1-c1cc(Nc2ncc(C(F)(F)F)cc2F)ccc1OCCO [I-065] | 5.02 | – | – | 0.15
C=C(C)c1cnn(C)c1-c1cc(Nc2ncc(C(F)(F)F)cc2F)ccc1OCCO [I-054] | 1.03 | – | – | 0.632
Cc1cccc(C)c1-c1cc(Nc2ncc(C(F)(F)F)cc2F)ccc1OCCO [Compound I-034] | 3.57 | 0.77 | – | –
Cc1ncnc(C)c1-c1cc(Nc2ncc(C(F)(F)F)cc2F)ccc1OCCO [Compound I-050] | 1.69 | 0.395 | – | –
Cn1ncc(F)c1-c1cc(Nc2ncc(Cl)cc2F)cnc1OCCO [Compound I-139] | 7.73 | 0.431 | – | –
CC(C)c1cnn(C)c1-c1cc(Nc2ncc(C(F)(F)F)cc2F)ccc1OCCO [I-056] | 1.04 | – | – | 1.3
Cn1ncc(Br)c1-c1cc(Nc2nc3cc(Br)ccc3n2C)ccc1OCCO [Compound I-084] | 0.297 | 0.442 | – | –
Cn1ncc(Br)c1-c1nc(Nc2ccc(C(F)(F)F)cn2)ccc1OCCO [Compound I-073] | 0.936 | – | – | 0.184
COCc1nc(C)c(-c2cc(Nc3ncc(C(F)(F)F)cc3Cl)ncc2OCCO)c(C)n1 [Compound I-201] | – | 2.26 | 2.54 | –
Cc1nc(OCC2CCCO2)nc(C)c1-c1cc(Nc2ncc(C(F)(F)F)cc2Cl)ncc1OCCO (racemic) [Compound I-214] | – | 1.66 | 8.87 | –
Cn1ncc(Cl)c1-c1cc(Nc2ncc(C(F)(F)F)cn2)c(Cl)cc1OCCO [Compound I-410] | – | 0.573 | 3.94 | –
CCc1coc(-c2cnc(Nc3cc(-c4c(C)nc(COC)nc4C)c(OCCO)cn3)c(Cl)c2)n1 [Compound I-331] | – | 1.91 | 1.66 | –
Cn1ncc(Br)c1-c1cc(Nc2ncc(C3CC3)cn2)ncc1OCCO [Compound I-281] | – | 0.668 | 6.55 | –
Cn1ncc(Br)c1-c1nc(Nc2cnc(C(F)(F)F)nc2)c(F)cc1OCCO [Compound I-289] | – | 0.793 | 60.2 | –
Cc1nc(C)c(-c2cc(Nc3ncc(C(F)(F)F)cc3C)c(F)cc2OCCO)c(C)n1 [Compound I-175] | – | 1.92 | 3.19 | –
CCCc1nc(C)c(-c2cc(Nc3ncc(C(F)(F)F)cc3Cl)ncc2OCCO)c(C)n1 [Compound I-222] | – | 1.35 | 1.91 | –
Cn1ncc(Br)c1-c1cc(Nc2ccc(OC3CC3)cn2)ncc1OCCO [Compound I-185] | – | 0.42 | 2.76 | –
Cn1ncc(Br)c1-c1nc(Nc2ccc(OC(F)F)cn2)c(F)cc1OCCO [Compound I-294] | – | 0.395 | 2.37 | –
CCc1nc(C)c(-c2cc(Nc3ncc(C(F)(F)F)cc3Cl)ncc2OCCO)c(C)n1 [Compound I-221] | – | 0.996 | 2.23 | –
COCc1nc(C)c(-c2cc(Nc3ncc(-c4cccc(C(F)F)c4)cc3Cl)ncc2OCCO)c(C)n1 [Compound I-262] | – | 0.558 | 0.541 | –
COCc1nc(C)c(-c2cc(Nc3ncc(-c4ncc(F)cn4)cc3Cl)ncc2OCCO)c(C)n1 [Compound I-249] | – | 5.19 | 4.29 | –
Cn1ncc(C#N)c1-c1nc(Nc2ccc(-c3ccc(Cl)cc3)cn2)c(F)cc1OCCO [Compound I-191] | – | 0.473 | 5.29 | –
Cc1ncnc(C)c1-c1cc(Nc2ncc(C(F)(F)F)cc2Cl)ncc1OCCO [Compound I-202] | – | 0.828 | 9.12 | –
Cc1nc(C)c(-c2cc(Nc3ncc(-c4ccc(C(F)(F)F)cc4)cn3)ncc2OCCO)c(C)n1 [Compound I-319] | – | 0.65 | 2.02 | –
Cn1ncc(Br)c1-c1cc(Nc2ncc(F)cn2)c(F)cc1OCCO [Compound I-165] | – | 0.389 | 9.78 | –
COCc1nc(C)c(-c2cc(Nc3ncc(-c4ccc(OC(F)F)cc4)cc3Cl)ncc2OCCO)c(C)n1 [Compound I-261] | – | 0.608 | 0.482 | –
COCc1nc(C)c(-c2cc(Nc3ncc(-c4ccnc(C(F)(F)F)c4)cc3Cl)ncc2OCCO)c(C)n1 [Compound I-246] | – | 2.7 | 5.25 | –
Cc1cc(C#N)ccc1Nc1ncc(OCCO)c(-c2c(Br)cnn2C)n1 [Compound I-355] | – | 0.398 | 8.2 | –

Continued, in another order:

Ki [1] [nM] | Ki [2, 4] [nM] | Ki [3] [nM] | SMILES | Ki [2] [nM]
3.25 | 0.23 | – | Cn1ncc(Br)c1-c1cc(Nc2nc3cc(F)ccc3[nH]2)ccc1OCCO [Compound I-077] | –
3.62 | 0.246 | – | Cc1n[nH]c(C)c1-c1cc(Nc2ncc(C(F)(F)F)cc2F)ccc1OCCO [Compound I-023] | –
0.772 | 0.205 | – | Cn1ncc(Cl)c1-c1cc(Nc2ncc(F)cc2F)ccc1OCCO [Compound I-137] | –
3.43 | 0.376 | – | Cc1nnn(C)c1-c1cc(Nc2ncc(C(F)(F)F)cc2F)ccc1OCCO [Compound I-033] | –
0.699 | 0.284 | – | Cn1ncc(Br)c1-c1cc(Nc2ncc(F)cc2F)ccc1OCCO [Compound I-016] | –
0.55 | 0.192 | – | COc1ccc2nc(Nc3ccc(OCCO)c(-c4c(Br)cnn4C)c3)sc2c1 [Compound I-085] | –
5.3 | 0.386 | – | Cc1ncnc(C)c1-c1cc(Nc2ncc(Cl)cc2F)ccc1OCCO [Compound I-057] | –
1.04 | 0.318 | – | Cn1ncc(Br)c1-c1cc(Nc2ncc(Cl)cc2F)ncc1OCCO [Compound I-155] | –
2.97 | 0.289 | – | Cc1cnn(C)c1-c1cc(Nc2ncc(C(F)(F)F)cc2F)cnc1OCCO [Compound I-083] | –
0.959 | 0.237 | – | Cn1ncc(Br)c1-c1cc(Nc2ncc(C3CC3)s2)cnc1OCCO [Compound I-129] | –
6.13 | 0.39 | – | Cn1ncc(Br)c1-c1cc(Nc2nc(C3CC3)ns2)ccc1OCCO [Compound I-104] | –
1.31 | 0.254 | – | Cn1ncc(Br)c1-c1cc(Nc2ccc(OC(F)(F)F)cc2)ccc1OCCO [Compound I-061] | –
6.43 | 0.272 | – | Cc1cnccc1-c1cc(Nc2ncc(C(F)(F)F)cc2F)ccc1OCCO [Compound I-012] | –
– | 0.387 | 0.78 | Cn1ncc(Br)c1-c1cc(Nc2ccc(OC(F)F)cn2)ncc1OCCO [Compound I-288] | –
– | 0.254 | 47.7 | Cn1ncc(Br)c1-c1nc(Nc2ccc(C(F)(F)F)nc2)ncc1OCCO [Compound I-349] | –
– | 0.297 | 7.91 | Cn1ncc(Cl)c1-c1cc(Nc2ccc(OCC(F)F)cn2)ncc1OCCO [Compound I-320] | –
– | 0.303 | 0.14 | Cc1cc(Cl)cnc1Nc1ccc(OCCO)c(-c2c(Br)cnn2C)c1 [Compound I-341] | –
